Paper PMC11882969 (Nature Communications, 2025)
“And” between values parts separate entries of the source, which are not always exact repeats. Identical values can stand only once.

Experiments:
[1] = molecular target: hCB1 (Homo sapiens, UniProt P21554); assay: bioSensAll ebBRET signaling profiling, hCB1; type: cell-based; set-up: host or cells: HEK293SL cells, transient PEI transfection; conditions: for Gi1 hCB1 response: Gi1 biosensor; for Gi1 hCB1 / GoB hCB1: single replicate values, FigS6a
[2] = molecular target: CB1 (rCB1) (Rattus norvegicus, UniProt P20272); assay: Radioligand competition binding, [3H]-CP-55,940, rat brain membranes
Sequence of CB1 (rCB1) (P20272 whole entry): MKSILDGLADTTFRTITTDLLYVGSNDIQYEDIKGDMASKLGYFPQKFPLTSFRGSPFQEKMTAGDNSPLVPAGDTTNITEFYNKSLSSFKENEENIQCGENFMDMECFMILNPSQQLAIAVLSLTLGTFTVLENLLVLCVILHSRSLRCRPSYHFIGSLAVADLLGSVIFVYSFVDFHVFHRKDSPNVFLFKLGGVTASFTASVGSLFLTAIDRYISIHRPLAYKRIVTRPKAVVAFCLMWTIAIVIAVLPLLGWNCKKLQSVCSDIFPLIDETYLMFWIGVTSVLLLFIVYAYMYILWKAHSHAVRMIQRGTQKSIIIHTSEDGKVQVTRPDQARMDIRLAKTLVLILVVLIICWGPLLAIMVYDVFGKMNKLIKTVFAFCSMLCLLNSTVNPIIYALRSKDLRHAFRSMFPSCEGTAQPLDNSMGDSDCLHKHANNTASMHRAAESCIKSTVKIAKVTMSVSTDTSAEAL

Sequence of hCB1 (P21554 whole entry): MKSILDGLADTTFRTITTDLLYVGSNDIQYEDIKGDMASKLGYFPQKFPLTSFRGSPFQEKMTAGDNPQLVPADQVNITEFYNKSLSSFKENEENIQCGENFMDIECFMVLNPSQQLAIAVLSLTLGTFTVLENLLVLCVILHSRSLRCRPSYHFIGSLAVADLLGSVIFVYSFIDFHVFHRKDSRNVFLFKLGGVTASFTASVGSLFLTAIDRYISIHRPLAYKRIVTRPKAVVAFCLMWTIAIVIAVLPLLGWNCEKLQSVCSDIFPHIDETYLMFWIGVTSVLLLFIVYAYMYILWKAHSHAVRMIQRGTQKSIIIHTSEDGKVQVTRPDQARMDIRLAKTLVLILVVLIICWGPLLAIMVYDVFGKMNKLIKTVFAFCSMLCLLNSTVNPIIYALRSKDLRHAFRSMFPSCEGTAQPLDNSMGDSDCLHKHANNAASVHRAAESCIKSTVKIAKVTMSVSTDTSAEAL

In the case of `Cc1cc(C(=O)N(C)C(c2ccccc2)c2ccco2)nn1-c1cccc(C(F)(F)F)c1` (centres unmarked) [‘1082], the “Gi1 hCB1 response” value ([1]; Log [Compound] (M) -4.22186) is reported as -35.0608, the “Gi1 hCB1 response” value ([1]; Log [Compound] (M) -4.63927) is reported as -33.606 and the “Gi1 hCB1 response” value ([1]; Log [Compound] (M) -5.05788) is reported as 18.2518. The “Gi1 hCB1 response” value ([1]; Log [Compound] (M) -5.47381) was -3.66, the “Gi1 hCB1 response” value ([1]; Log [Compound] (M) -5.89285) was 5.159 and the “Gi1 hCB1 response” value ([1]; Log [Compound] (M) -6.31878) was -15.9695. The “Gi1 hCB1 response” value ([1]; Log [Compound] (M) -6.72585) was 12.7459, the “Gi1 hCB1 response” value ([1]; Log [Compound] (M) -7.14267) was 12.0521 and the “Gi1 hCB1 response” value ([1]; Log [Compound] (M) -7.55284) was 14.8945. The “Gi1 hCB1 response” value ([1]; Log [Compound] (M) -8) was -25.6382, the “Gi1 hCB1 response” value ([1]; Log [Compound] (M) -8.22186) was 0.1228 and the “Gi1 hCB1 response” value ([1]; Log [Compound] (M) -8.39794) was -3.727. For the same compound, the “Gi1 hCB1 response” value ([1]; Log [Compound] (M) -8.68787) was -1.824, the “Gi1 hCB1 response” value ([1]; Log [Compound] (M) -9.15521) was 3.279 and the “Gi1 hCB1 response” value ([1]; Log [Compound] (M) -9.61989) was -3.167. For the same compound, the “Gi1 hCB1 response” value ([1]; Log [Compound] (M) -10.0969) was -2.16, the “Gi1 hCB1 response” value ([1]; Log [Compound] (M) -10.5529) was 5.92 and the “Gi1 hCB1 response” value ([1]; Log [Compound] (M) -11.0177) was -6.256. The “Gi1 hCB1 response” value ([1]; Log [Compound] (M) -11.4949) was -0.9291, the “Gi1 hCB1 response” value ([1]; Log [Compound] (M) -11.9208) was -13.4627 and the “Gi1 hCB1 response” value ([1]; Log [Compound] (M) -12.3979) was -16.5961. The “Gi1 hCB1 response” value ([1]; Log [Compound] (M) -12.8861) was 7.553, the “Gi1 hCB1 response” value ([1]; Log [Compound] (M) -13, individual replicate values) was -19.5729 and -62.4781 and the “Gi1 hCB1” value ([1]; Log [Compound] (M) -4.22186) was -9.361. For the same compound, the “GoB hCB1” value ([1]; Log [Compound] (M) -4.22186) was -31.4993, the “Gi1 hCB1” value ([1]; Log [Compound] (M) -4.63927) was -10.6872 and the “GoB hCB1” value ([1]; Log [Compound] (M) -4.63927) was -34.2867. The “Gi1 hCB1” value ([1]; Log [Compound] (M) -5.05788) was -11.9051, the “GoB hCB1” value ([1]; Log [Compound] (M) -5.05788) was -28.1184 and the “Gi1 hCB1” value ([1]; Log [Compound] (M) -5.47381) was -11.4426. The “GoB hCB1” value ([1]; Log [Compound] (M) -5.47381) was -23.1191, the “Gi1 hCB1” value ([1]; Log [Compound] (M) -5.89285) was -8.945 and the “GoB hCB1” value ([1]; Log [Compound] (M) -5.89285) was -20.2417. For the same compound, the “Gi1 hCB1” value ([1]; Log [Compound] (M) -6.31878) was -6.247, the “GoB hCB1” value ([1]; Log [Compound] (M) -6.31878) was -13.1203 and the “Gi1 hCB1” value ([1]; Log [Compound] (M) -6.72585) was -1.113. The “GoB hCB1” value ([1]; Log [Compound] (M) -6.72585) was -7.186, the “Gi1 hCB1” value ([1]; Log [Compound] (M) -7.14267) was -0.5276 and the “GoB hCB1” value ([1]; Log [Compound] (M) -7.14267) was -1.323. The “Gi1 hCB1” value ([1]; Log [Compound] (M) -7.55284) was 1.23, the “GoB hCB1” value ([1]; Log [Compound] (M) -7.55284) was 0.2953 and the “Gi1 hCB1” value ([1]; Log [Compound] (M) -8) was 1.677. For the same compound, the “GoB hCB1” value ([1]; Log [Compound] (M) -8) was -4.362, the “Gi1 hCB1” value ([1]; Log [Compound] (M) -8.22186) was 1.6461 and the “GoB hCB1” value ([1]; Log [Compound] (M) -8.22186) was -2.654. The “Gi1 hCB1” value ([1]; Log [Compound] (M) -8.39794) was 0.5515, the “GoB hCB1” value ([1]; Log [Compound] (M) -8.39794) was -2.906 and the “Gi1 hCB1” value ([1]; Log [Compound] (M) -8.68787) was 1.245. The “GoB hCB1” value ([1]; Log [Compound] (M) -8.68787) was -4.668, the “Gi1 hCB1” value ([1]; Log [Compound] (M) -9.15521) was 1.045 and the “GoB hCB1” value ([1]; Log [Compound] (M) -9.15521) was -5.747. The “Gi1 hCB1” value ([1]; Log [Compound] (M) -9.61989) was -0.04972, the “GoB hCB1” value ([1]; Log [Compound] (M) -9.61989) was -2.816 and the “Gi1 hCB1” value ([1]; Log [Compound] (M) -10.0969) was 2.864. The “GoB hCB1” value ([1]; Log [Compound] (M) -10.0969) was -1.485, the “Gi1 hCB1” value ([1]; Log [Compound] (M) -10.5529) was 1.384 and the “GoB hCB1” value ([1]; Log [Compound] (M) -10.5529) was -2.978. The “Gi1 hCB1” value ([1]; Log [Compound] (M) -11.0177) was -0.3581, the “GoB hCB1” value ([1]; Log [Compound] (M) -11.0177) was 1.41 and the “Gi1 hCB1” value ([1]; Log [Compound] (M) -11.4949) was 1.415. The “GoB hCB1” value ([1]; Log [Compound] (M) -11.4949) was -0.7478, the “Gi1 hCB1” value ([1]; Log [Compound] (M) -11.9208) was 2.802 and the “GoB hCB1” value ([1]; Log [Compound] (M) -11.9208) was 0.3312. The “Gi1 hCB1” value ([1]; Log [Compound] (M) -12.3979) was 0.1044, the “GoB hCB1” value ([1]; Log [Compound] (M) -12.3979) was -0.9456 and the “Gi1 hCB1” value ([1]; Log [Compound] (M) -12.8861) was -0.6818. The “GoB hCB1” value ([1]; Log [Compound] (M) -12.8861) was 1.626, the “Gi1 hCB1” value ([1]; Log [Compound] (M) -13) was 2.001 and 0.07361 and the “GoB hCB1” value ([1]; Log [Compound] (M) -13) was 1.176 and -0.1363. The “pKi [95% CI]” value ([2]; rCB1) was 6.1 [5.8 – 6.3] and the Ki ([2]; read-out: Ki [95% CI], rCB1, [3H]-CP-55,940) was 850 nM.
